Patent US11192893B2, “Pyrazoloquinazolinone antitumor agents” (The Rockefeller University, priority 2017, dated 2021)

Test system: Hedgehog pathway activity
Assay: Shh-Light luciferase reporter assay of Hedgehog pathway activity (Shh-Light2 cells, SAG-stimulated)
Format: cell-based
Conditions: for activity at 2 µM: 2 μM compound, read-out: SHH-light % residual @ 2 μM; for activity at 2 µM / activity at 20 µM: SAG 500 nM; for activity at 20 µM: 20 μM compound, read-out: SHH-light % residual @ 20 μM
Protocol: To examine the inhibition of dynein 2 in cell-based assays, an established luciferase reporter-based cellular assay of Hedgehog pathway activity was employed [Taipale et al., Nature. 2000; 406(6799): 1005-9]. Signaling in this pathway depends on the function of dynein 2. In this setting, expression of luciferase driven by Hedgehog pathway activity was inhibited by compound 5 with an IC50 value of 0.9±0.5 μM. […] The potencies of these compounds in this cell-based assay match the rank-order of dynein 2 inhibition in vitro. In these assays, Hedgehog pathway activity was stimulated using the Synthetic Agonist of Smoothened (SAG). This compound competes with many Hedgehog pathway inhibitors for binding to Smoothened, a key node in the signaling pathway.
SHH-Light Assay (Steinman et al. eLife 2017; 6:e25174.)
NIH-3T3 cells stably expressing a luciferase reporter downstream of a Gli binding site (Shh-Light2 cells, RRID: CVCL_2721) were maintained in DMEM with 10% bovine calf serum (BCS). Cells were seeded at a density of 30,000 cells/well in 96-well tissue culture-treated plates (Corning, cat #353072) in 100 μL in DMEM+10% BCS, and incubated for 48 hr (Taipale et al., 2000). Wells were washed briefly with PBS. Next […] of low serum media (DMEM+0.5% BCS) containing smoothened agonist (SAG, 500 nM), and either solvent control (0.2% DMSO) or test compound (serial three-fold dilutions of each inhibitor starting from 20 μM) were added to the wells. After 28-32 hr of inhibitor treatment, cells were washed with 50 μL PBS and lysed for >30 min in 30 μL Passive Lysis Buffer (Promega Dual Luciferase kit, cat E1910). 5 uL of each lysate was transferred to white, solid-bottom 96-well plates (Greiner, cat #655075), followed by rapid addition (within 30 s) of 30 μL of Luciferase Assay Reagent using a multichannel pipette. Luminescence for each condition was read using a Synergy Neo plate reader (5 s integration time per well). Cell line identity was confirmed by measurement of the degree of response to Hedgehog pathway stimulation by the synthetic agonist SAG and using previously published values from our groups and others as references (Firestone et al., 2012; Hyman et al., 2009).

| Compound | activity at 2 µM [%] | activity at 20 µM [%] | IC50 (Table 2, SAG 500 nM, 28-32 hr treatment, read-out: Shh-light IC50) [nM] |
| --- | --- | --- | --- |
| N#Cc1c(COc2ccc(Cl)cc2)nn2c(=O)c3ccccc3[nH]c12 [Example 42, 2-[(4-Chlorophenoxy)methyl]-9-oxo-4H-pyrazolo[5,1-b]quinazoline-3-carbonitrile] | 105 | 4.5 |  |
| NC(=O)c1c(CCC(Cl)(Cl)Cl)nn2c(=O)c3ccccc3[nH]c12 [Example 43, 9-Oxo-2-(3,3,3-trichloropropyl)-4,9-dihydropyrazolo[5,1-b]quinazoline-3-carboxamide] | 65 | 15.4 |  |
| N#Cc1c(CCC(Cl)(Cl)Cl)nn2c(=O)c3ccccc3[nH]c12 [Example 44, 9-Oxo-2-(3,3,3-trichloropropyl)-4H-pyrazolo[5,1-b]quinazoline-3-carbonitrile] | 45.8 | 3.4 |  |
| NC(=O)c1c(CC2CCCCC2)nn2c(=O)c3ccccc3[nH]c12 [Example 45, 2-(Cyclohexylmethyl)-9-oxo-4H-pyrazolo[5,1-b]quinazoline-3-carboxamide] | 82.4 | 4 |  |
| N#Cc1c(CC2CCCCC2)nn2c(=O)c3ccccc3[nH]c12 [Example 46, 2-(Cyclohexylmethyl)-9-oxo-4H-pyrazolo[5,1-b]quinazoline-3-carbonitrile] | 67.1 | 5 |  |
| NC(=O)c1c(CCOc2ccc(Cl)cc2)nn2c(=O)c3ccccc3[nH]c12 [Example 47, 2-[2-(4-Chlorophenoxy)ethyl]-9-oxo-4H-pyrazolo[5,1-b]quinazoline-3-carboxamide] | 54.7 | 11 |  |
| N#Cc1c(CCOc2ccc(Cl)cc2)nn2c(=O)c3ccccc3[nH]c12 [Example 48, 2-[2-(4-Chlorophenoxy)ethyl]-9-oxo-4H-pyrazolo[5,1-b]quinazoline-3-carbonitrile] | 75.5 | 10.9 |  |
| NC(=O)c1c(-c2ccc(Cl)cc2Cl)nn2c(=O)c3c(OCc4ccccc4)cccc3[nH]c12 [Example 49, 8-Benzyloxy-2-(2,4-dichlorophenyl)-9-oxo-4H-pyrazolo[5,1-b]quinazoline-3-carboxamide] | 78.3 | 10.8 |  |
| N#Cc1c(-c2ccc(Cl)cc2Cl)nn2c(=O)c3c(OCc4ccccc4)cccc3[nH]c12 [Example 50, 8-Benzyloxy-2-(2,4-dichlorophenyl)-9-oxo-4H-pyrazolo[5,1-b]quinazoline-3-carbonitrile] | 75.8 |  |  |
| NC(=O)c1c(C2CCC(F)(F)CC2)nn2c(=O)c3ccccc3[nH]c12 [Example 51, 2-(4,4-Difluorocyclohexyl)-9-oxo-4H-pyrazolo[5,1-b]quinazoline-3-carboxamide] | 92.4 | 103 |  |
| N#Cc1c(C2CCC(F)(F)CC2)nn2c(=O)c3ccccc3[nH]c12 [Example 52, 2-(4,4-Difluorocyclohexyl)-9-oxo-4H-pyrazolo[5,1-b]quinazoline-3-carbonitrile] | 110 | 76.9 |  |
| NC(=O)c1c(CC2CC2)nn2c(=O)c3ccccc3[nH]c12 [Example 53, 2-(Cyclopropylmethyl)-9-oxo-4H-pyrazolo[5,1-b]quinazoline-3-carboxamide] | 75.2 | 123 |  |
| N#Cc1c(CC2CC2)nn2c(=O)c3ccccc3[nH]c12 [Example 54, 2-(Cyclopropylmethyl)-9-oxo-4H-pyrazolo[5,1-b]quinazoline-3-carbonitrile] | 81.7 |  |  |
| NC(=O)c1c(-c2ccc(Cl)cc2Cl)nn2c(=O)c3cc(OCc4ccccc4)ccc3[nH]c12 [Example 55, 7-Benzyloxy-2-(2,4-dichlorophenyl)-9-oxo-4H-pyrazolo[5,1-b]quinazoline-3-carboxamide] | 62.8 |  |  |
| N#Cc1c(-c2ccc(Cl)cc2Cl)nn2c(=O)c3cc(OCc4ccccc4)ccc3[nH]c12 [Example 56, 7-Benzyloxy-2-(2,4-dichlorophenyl)-9-oxo-4H-pyrazolo[5,1-b]quinazoline-3-carbonitrile] | 49.6 |  |  |
| NC(=O)c1c(CCC(F)(F)F)nn2c(=O)c3ccccc3[nH]c12 [Example 57, 9-Oxo-2-(3,3,3-trifluoropropyl)-4H-pyrazolo[5,1-b]quinazoline-3-carboxamide] | 67.9 |  |  |

| Compound | activity at 2 µM [%] | activity at 20 µM [%] | IC50 (Table 2, SAG 500 nM, 28-32 hr treatment, read-out: Shh-light IC50) [nM] |
| --- | --- | --- | --- |
| N#Cc1c(CCC(F)(F)F)nn2c(=O)c3ccccc3[nH]c12 [Example 58, 9-Oxo-2-(3,3,3-trifluoropropyl)-4H-pyrazolo[5,1-b]quinazoline-3-carbonitrile] | 55.5 | 35.1 |  |
| N#Cc1c(C2(C(F)(F)F)CC2)nn2c(=O)c3ccccc3[nH]c12 [Example 59, 9-Oxo-2-[1-(trifluoromethyl)cyclopropyl]-4H-pyrazolo[5,1-b]quinazoline-3-carbonitrile] | 89.3 | 45.1 |  |
| NC(=O)c1c(CCCO)nn2c(=O)c3ccccc3[nH]c12 [Example 60, 2-(3-Hydroxypropyl)-9-oxo-4H-pyrazolo[5,1-b]quinazoline-3-carboxamide] | 78.1 | 99 |  |
| O=C(O)c1c(-c2ccc(Cl)cc2Cl)nn2c1[nH]c(=O)c1ccccc12 [Example 61, 2-(2,4-Dichlorophenyl)-5-oxo-4H-pyrazolo[1,5-a]quinazoline-3-carboxylic acid] |  | 66.7 |  |
| NC(=O)c1c(-c2ccc(Cl)cc2Cl)nn2c1[nH]c(=O)c1ccccc12 [Example 62, 2-(2,4-Dichlorophenyl)-5-oxo-4H-pyrazolo[1,5-a]quinazoline-3-carboxamide] |  | 42.1 |  |
| COc1ccc2c(c1)c(=O)[nH]c1c(C#N)c(C3(c4ccc(Cl)cc4)CC3)nn12 [Example 64, 2-[1-(4-Chlorophenyl)cyclopropyl]-7-methoxy-5-oxo-4H-pyrazolo[1,5-a]quinazoline-3-carbonitrile] | 91.6 | 90.4 |  |
| COc1ccc2c(c1)c(=O)[nH]c1c(C#N)c(-c3ccc(Cl)cc3Cl)nn12 [Example 65, 2-(2,4-Dichlorophenyl)-7-methoxy-5-oxo-4H-pyrazolo[1,5-a]quinazoline-3-carbonitrile] | 76.9 | -1 |  |
| N#Cc1ccc2c(c1)c(=O)[nH]c1c(C#N)c(C3(c4ccc(Cl)cc4)CC3)nn12 [Example 66, 2-[1-(4-Chlorophenyl)cyclopropyl]-5-oxo-4H-pyrazolo[1,5-a]quinazoline-3,7-dicarbonitrile] | 39.6 | -3.8 | 1500 |
| COC(=O)c1c(-c2ccc(Cl)cc2Cl)nn2c(=O)c3ccccc3[nH]c12 [Example 67, Methyl 2-(2,4-dichlorophenyl)-9-oxo-4H-pyrazolo[5,1-b]quinazoline-3-carboxylate] |  | 80.3 |  |
| CC(C)OC(=O)c1c(-c2ccc(Cl)cc2Cl)nn2c(=O)c3ccccc3[nH]c12 [Example 68, Isopropyl 2-(2,4-dichlorophenyl)-9-oxo-4H-pyrazolo[5,1-b]quinazoline-3-carboxylate] | 90.5 | 110 |  |
| O=c1c2ccc(Cl)cc2[nH]c2cc(-c3ccc(Cl)cc3Cl)nn12 [Example 69, 6-Chloro-2-(2,4-dichlorophenyl)-4H-pyrazolo[5,1-b]quinazolin-9-one] | 75 | 65.4 |  |
| O=c1c2ccccc2[nH]c2cc(-c3ccc(Cl)cc3Cl)nn12 [Example 70, 2-(2,4-Dichlorophenyl)-4H-pyrazolo[5,1-b]quinazolin-9-one] | 109 | 113 |  |
| O=c1c2ccccc2[nH]c2cc(-c3ccc(C(F)(F)F)cc3)nn12 [Example 71, 2-[4-(Trifluoromethyl)phenyl]-4H-pyrazolo[5,1-b]quinazolin-9-one] | 108 | 115 |  |
| CN(C)Cc1c(-c2ccc(Cl)cc2Cl)nn2c(=O)c3ccccc3[nH]c12 [Example 72, 2-(2,4-Dichlorophenyl)-3-[(dimethylamino)methyl]-4H-pyrazolo[5,1-b]quinazolin-9-one] | 122 | 20.1 |  |
| O=c1c2ccccc2[nH]c2c(I)c(-c3ccc(Cl)cc3Cl)nn12 [Example 73, 2-(2,4-Dichlorophenyl)-3-iodo-4H-pyrazolo[5,1-b]quinazolin-9-one] | 99.1 | 34.6 |  |
